Where two headings read alike, the source gives them in different places.
Assays:
[1] = tested on: colorectal cancer cell lines (e.g. DLD-1, HCT 116, SW620, HCT-15, HCT-8, RKO); assay: Cell based assay, cell viability (CellTiter-Glo), colorectal cancer cell lines
Outline: (§1)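 Following a 24 h pre-culture in plates, cells receive test compound (final 0 to 2 μM) for 72 hours. Luminescent quantitation of cellular ATP gives viability.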

[2] = tested on: cervical carcinoma cell lines; assay: Cell based assay, cell viability (CellTiter-Glo), cervical carcinoma cell lines; conditions: Homo sapiens; HeLa cells
liver cancer cell lines = assay: Cell based assay, cell viability (CellTiter-Glo), liver cancer cell lines; conditions: Homo sapiens, SK-HEP1; SK-HEP-1 cell line
Outline: as §1

[3] = Homo sapiens, DLD-1, 72 hours treatment, read-out: IC50, colorectal cancer cell line DLD-1
[4] = Homo sapiens, HCT 116, 72 hours treatment, read-out: IC50, colorectal cancer cell line HCT 116
[5] = Homo sapiens, HCT-8, 72 hours treatment, read-out: IC50, colorectal cancer cell line HCT-8
[6] = Homo sapiens, HCT-15, 72 hours treatment, read-out: IC50, colorectal cancer cell line HCT-15
[7] = Homo sapiens, HT-29, 72 hours treatment, read-out: IC50, colorectal cancer cell line HT-29
[8] = Homo sapiens, LoVo, 72 hours treatment, read-out: IC50, colorectal cancer cell line LoVo
[9] = Homo sapiens, SW480, 72 hours treatment, read-out: IC50, colorectal cancer cell line SW480
[10] = Homo sapiens, SW-620, SW620, 72 hours treatment, read-out: IC50, colorectal cancer cell line SW620
[11] = RKO, 72 hours treatment, read-out: IC50, colorectal cancer cell line RKO
[12] = Homo sapiens, DLD-1 cells, 72 hours treatment, read-out: IC50, colorectal cancer cell line DLD-1
[13] = Homo sapiens, HCT 116 cells, 72 hours treatment, read-out: IC50, colorectal cancer cell line HCT 116
[14] = Homo sapiens, HCT-8 cells, 72 hours treatment, read-out: IC50, colorectal cancer cell line HCT-8
[15] = Homo sapiens, HCT-15 cells, 72 hours treatment, read-out: IC50, colorectal cancer cell line HCT-15
[16] = Homo sapiens, HT-29 cells, 72 hours treatment, read-out: IC50, colorectal cancer cell line HT-29
[17] = Homo sapiens, LoVo cells, 72 hours treatment, read-out: IC50, colorectal cancer cell line LoVo
[18] = Homo sapiens, RKO cells, 72 hours treatment, read-out: IC50, colorectal cancer cell line RKO
[19] = Homo sapiens, SW480 cells, 72 hours treatment, read-out: IC50, colorectal cancer cell line SW480
[20] = Homo sapiens, SW-620, SW620 cells, 72 hours treatment, read-out: IC50, colorectal cancer cell line SW620

IC50 [1, 3] [nM] | IC50 [1, 4] [nM] | IC50 [1, 5] [nM] | IC50 [1, 6] [nM] | IC50 [1, 7] [nM] | IC50 [1, 8] [nM] | IC50 [1, 9] [nM] | IC50 [1, 10] [nM] | IC50 [1, 11] [nM] | IC50 [2] [nM] | IC50 (liver cancer cell lines) [nM] | IC50 [1, 12] [nM] | IC50 [1, 13] [nM] | IC50 [1, 14] [nM] | IC50 [1, 15] [nM] | IC50 [1, 16] [nM] | IC50 [1, 17] [nM] | IC50 [1, 18] [nM] | IC50 [1, 19] [nM] | IC50 [1, 20] [nM] | Structure (SMILES)
1280 | 1930 | > 2000 | 1590 | > 10000 | > 2000 | > 2000 | 1760 | 1500 | > 10000 | – | – | – | – | – | – | – | – | – | – | CC(=O)c1c([S+]([O-])Cc2c(F)c(F)c(F)c(F)c2F)[nH]c2c(Br)ccc(Cl)c2c1=O (stereo not shown) [Compound 78, 3-acetyl-8-bromo-5-chloro-2-(((perfluorophenyl)methyl)sulfinyl)quinolin-4(1H)-one]
890 | 1200 | 1660 | 1480 | > 10000 | > 2000 | 1340 | 1450 | 1150 | > 10000 | 940 | – | – | – | – | – | – | – | – | – | CC(=O)c1c([S+]([O-])Cc2cc(Cl)ccc2Cl)[nH]c2c(Br)ccc(Cl)c2c1=O (stereo not shown) [Compound 44, 3-acetyl-8-bromo-5-chloro-2-((2,5-dichlorobenzyl)sulfinyl)quinolin-4(1H)-one]
> 2000 | > 2000 | > 2000 | > 2000 | > 10000 | > 2000 | > 2000 | > 2000 | > 2000 | > 10000 | > 2000 | – | – | – | – | – | – | – | – | – | CC(=O)c1c([S+]([O-])Cc2ccc([N+](=O)[O-])cc2)[nH]c2c(Cl)ccc(Cl)c2c1=O (stereo not shown) [Compound 57, 3-acetyl-5,8-dichloro-2-((4-nitrobenzyl)sulfinyl)quinolin-4(1H)-one]
– | – | – | – | – | – | – | – | – | > 10000 | 1590 | 1640 | 1590 | > 2000 | > 2000 | > 10000 | > 2000 | 1720 | > 2000 | 1700 | COC(=O)c1ccc(C[S+]([O-])c2[nH]c3c(Cl)ccc(Cl)c3c(=O)c2C(C)=O)o1 (stereo not shown) [Compound 89, methyl 5-(((3-acetyl-5,8-dichloro-4-oxo-1,4-dihydroquinolin-2-yl)sulfinyl)methyl)furan-2-carboxylate]
– | – | – | – | – | – | – | – | – | > 2000 | 940 | 1130 | 760 | 810 | 1060 | > 10000 | 910 | 920 | 1190 | 640 | Cc1cc(C[S+]([O-])c2[nH]c3c(Br)ccc(Cl)c3c(=O)c2C(=O)C(C)C)no1 (stereo not shown) [Compound 95, 8-bromo-5-chloro-3-isobutyryl-2-(((5-methylisoxazol-3-yl)methyl)sulfinyl)quinolin-4(1H)-one]
880 | 1250 | 1780 | 1390 | > 10000 | > 2000 | 1660 | 1760 | 1320 | > 10000 | 1030 | – | – | – | – | – | – | – | – | – | COc1cc(S(F)(F)(F)(F)F)ccc1C[S+]([O-])c1[nH]c2c(Br)ccc(Cl)c2c(=O)c1C(C)=O (stereo not shown) [Compound 75, 3-acetyl-8-bromo-5-chloro-2-((2-methoxy-4-(pentafluoro--sulfanyl)benzyl)sulfinyl)quinolin-4(1H)-one]
820 | 1180 | 1420 | 1250 | > 10000 | > 2000 | 1660 | 1350 | 1420 | > 10000 | – | – | – | – | – | – | – | – | – | – | CC(=O)c1c([S+]([O-])Cc2ccc(F)c(Cl)c2)[nH]c2c(Br)ccc(Cl)c2c1=O (stereo not shown) [Compound 31, 3-acetyl-8-bromo-5-chloro-2-((3-chloro-4-fluorobenzyl)sulfinyl)quinolin-4(1H)-one]
1150 | 1810 | > 2000 | 1810 | > 10000 | > 2000 | > 2000 | 1910 | > 2000 | > 10000 | 1430 | – | – | – | – | – | – | – | – | – | COc1cccc(C[S+]([O-])c2[nH]c3c(Br)ccc(Cl)c3c(=O)c2C(C)=O)c1 (stereo not shown) [Compound 55, 3-acetyl-8-bromo-5-chloro-2-((3-methoxybenzyl)sulfinyl)quinolin-4(1H)-one]
– | 1370 | 1630 | 1360 | > 10000 | > 2000 | > 2000 | 1650 | 1690 | > 10000 | 870 | – | – | – | – | – | – | – | – | – | CC(=O)c1c([S+]([O-])Cc2ccc([S+]([O-])C(F)(F)F)cc2)[nH]c2c(Br)ccc(Cl)c2c1=O (stereo not shown) [Compound 64, 3-acetyl-8-bromo-5-chloro-2-((4-((trifluoromethyl)sulfinyl)benzyl)sulfinyl)quinolin-4(1H)-one]
1020 | 1610 | 2010 | 1530 | > 10000 | > 2000 | > 2000 | 1770 | > 2000 | > 10000 | 880 | – | – | – | – | – | – | – | – | – | CC(=O)c1c([S+]([O-])Cc2c(F)cccc2Cl)[nH]c2c(Br)ccc(Cl)c2c1=O (stereo not shown) [Compound 74, 3-acetyl-8-bromo-5-chloro-2-((2-chloro-6-fluorobenzyl)sulfinyl)quinolin-4(1H)-one]
1260 | 1820 | > 2000 | 1940 | > 10000 | > 2000 | > 2000 | 1750 | 1830 | > 10000 | 1310 | – | – | – | – | – | – | – | – | – | CC(=O)c1c([S+]([O-])Cc2cc(F)cc(F)c2)[nH]c2c(Br)ccc(Cl)c2c1=O (stereo not shown) [Compound 46, 3-acetyl-8-bromo-5-chloro-2-((3,5-difluorobenzyl)sulfinyl)quinolin-4(1H)-one]

More lines, now with the values behind:

Structure (SMILES) | IC50 [1, 3] [nM] | IC50 [1, 4] [nM] | IC50 [1, 5] [nM] | IC50 [1, 6] [nM] | IC50 [1, 7] [nM] | IC50 [1, 8] [nM] | IC50 [1, 9] [nM] | IC50 [1, 10] [nM] | IC50 [1, 11] [nM] | IC50 [2] [nM] | IC50 (liver cancer cell lines) [nM] | IC50 [1, 12] [nM] | IC50 [1, 13] [nM] | IC50 [1, 14] [nM] | IC50 [1, 15] [nM] | IC50 [1, 16] [nM] | IC50 [1, 17] [nM] | IC50 [1, 18] [nM] | IC50 [1, 19] [nM] | IC50 [1, 20] [nM]
CC(=O)c1c([S+]([O-])Cc2cccc(F)c2)[nH]c2c(Br)ccc(Cl)c2c1=O (stereo not shown) [Compound 50, 3-acetyl-8-bromo-5-chloro-2-((3-fluorobenzyl)sulfinyl)quinolin-4(1H)-one] | 990 | 1390 | 1990 | 1590 | > 10000 | > 2000 | > 2000 | 1580 | 1770 | > 10000 | 1350 | – | – | – | – | – | – | – | – | –
CC(=O)c1c(S(=O)(=O)Cc2ccccc2)[nH]c2c(Br)ccc(Cl)c2c1=O [Compound 34, 3-acetyl-2-(benzylsulfonyl)-8-bromo-5-chloroquinolin-4(1H)-one] | 1320 | 1840 | > 2000 | 1950 | > 10000 | > 2000 | > 2000 | 1870 | > 2000 | > 10000 | 1720 | – | – | – | – | – | – | – | – | –
CC(=O)c1c([S+]([O-])Cc2ccc(C#N)cc2)[nH]c2c(Br)ccc(Cl)c2c1=O (stereo not shown) [Compound 73, 4-(((3-acetyl-8-bromo-5-chloro-4-oxo-1,4-dihydroquinolin-2-yl)sulfinyl)methyl)benzonitrile] | 1330 | 1860 | > 2000 | > 2000 | > 10000 | > 2000 | > 2000 | > 2000 | > 2000 | > 10000 | 1420 | – | – | – | – | – | – | – | – | –
CC(=O)c1c([S+]([O-])Cc2cccnc2)[nH]c2c(Br)ccc(Cl)c2c1=O (stereo not shown) [Compound 84, 3-acetyl-8-bromo-5-chloro-2-((pyridin-3-ylmethyl)sulfinyl)quinolin-4(1H)-one] | – | – | – | – | – | – | – | – | – | > 10000 | 1070 | 930 | 1160 | 1300 | 1510 | > 10000 | 1960 | 1270 | 1550 | 1230
CC(=O)c1c([S+]([O-])Cc2ccc(C(F)(F)F)cc2)[nH]c2c(Br)ccc(Cl)c2c1=O (stereo not shown) [Compound 70, 3-acetyl-8-bromo-5-chloro-2-((4-(trifluoromethyl)benzyl)sulfinyl)quinolin-4(1H)-one] | 920 | 1320 | 1540 | 1190 | > 10000 | > 2000 | > 2000 | 1710 | 1630 | > 10000 | 1030 | – | – | – | – | – | – | – | – | –
CC(=O)c1c([S+]([O-])Cc2ccc(OC(F)(F)F)cc2)[nH]c2c(Br)ccc(Cl)c2c1=O (stereo not shown) [Compound 71, 3-acetyl-8-bromo-5-chloro-2-((4-(trifluoromethoxy)benzyl)sulfinyl)quinolin-4(1H)-one] | 1150 | 1730 | > 2000 | 1620 | > 10000 | > 2000 | > 2000 | > 2000 | > 2000 | > 10000 | 1180 | – | – | – | – | – | – | – | – | –
Cc1cc(C[S+]([O-])c2[nH]c3c(Cl)ccc(Cl)c3c(=O)c2C(=O)C(C)C)no1 (stereo not shown) [Compound 86, 5,8-dichloro-3-isobutyryl-2-(((5-methylisoxazol-3-yl)methyl)sulfinyl)quinolin-4(1H)-one] | – | – | – | – | – | – | – | – | – | > 2000 | 1000 | 1090 | 860 | 1110 | 1260 | > 10000 | 1150 | 890 | 1270 | 740
CC(=O)c1c([S+]([O-])Cc2ccc(SC(F)(F)F)cc2)[nH]c2c(Br)ccc(Cl)c2c1=O (stereo not shown) [Compound 56, 3-acetyl-8-bromo-5-chloro-2-((4-((trifluoromethyl)thio)benzyl)sulfinyl)quinolin-4(1H)-one] | 800 | 1190 | 1690 | 1320 | > 10000 | > 2000 | > 2000 | 1910 | 1530 | > 2000 | 1020 | – | – | – | – | – | – | – | – | –
CC(=O)c1c([S+]([O-])Cc2ccc(C(C)(C)C)cc2)[nH]c2c(Br)ccc(Cl)c2c1=O (stereo not shown) [Compound 60, 3-acetyl-8-bromo-2-((4-(tert-butyl)benzyl)sulfinyl)-5-chloroquinolin-4(1H)-one] | 1480 | 1940 | > 2000 | 1800 | > 10000 | > 2000 | > 2000 | > 2000 | > 2000 | > 10000 | > 2000 | – | – | – | – | – | – | – | – | –
